This is an account of results in US20160213651A1, “PIDOTIMOD FOR USE IN THE TREATMENT OF INFLAMMATION-ASSOCIATED DISEASES” (POLICHEM S.A., priority 2013, published 2016).

The subject of assay [1] is NLRP12. Put plainly: NLRP12 downregulation induced in monocytes by TLR stimulation, Pidotimod pretreatment. It is filed as cell-based, human. Particulars: monocytes pretreated with Pidotimod. How it is done:
(§1) 1. Culture of human monocytes. Peripheral blood mononuclear cells (PBMCs) were obtained by peripheral blood (freshly drawn or buffy coats). Monocytes were then derived from PBMCs by positive selection using anti-CD14 paramagnetic beads (Miltenyi Biotec) as described (Marini et al., 2008). Upon purification, cells were shortly cultured (from 24 to 72 hours) in complete culture medium (RPMI 1640 complemented with 10% of fetal bovine serum certified low endotoxin).
(§2) 2. Cell treatment with Pidotimod. PBMCs, purified primary human monocytes or MonoMac 6were treated with Pidotimod, at concentrations ranging from 1 to 25 μg/mL and, for different times. In some experiments, after 6 to 48 hours from the beginning of Pidotimod treatment, cells were washed and cultured for 6-24 hours in the presence and absence of TLR 1-9 optimal ligands (Human TLR1-9 Agonist kit, Invivogen).
(§3) 4. Immunoblot and immunoprecipitation assays. Cell lysates were prepared in lysis buffer containing a protease inhibitor cocktail (Roche). […] To detect the presence of cytoplasmic NLRP12, a first incubation with the goat polyclonal antibody to NLRP12 (Santa Cruz Biotechnology) was followed by the addiction of donkey-anti-goat-HRP secondary antibody. […]
(§4) 5. […] Data obtained were analysed using the 2^−ΔΔCt method using Relative Quantification Study software (Applied Biosystems). […]

Assay [2] deals with NLRP12. Put plainly: NLRP12 mRNA expression in MonoMac 6 cells (transcriptional array, quantitative Real-Time PCR). In kind it is cell-based, human. How it is done: as §1, §2
(§5) 3. Evaluation of gene expression involved in Pidotimod activity. Upon stimulation, cells were harvested and total RNA was extracted using the RNAeasy mini kit (Qiagen). RNA was then retro-transcribed and subjected to amplification. Real-time PCR was performed using the “Human “RT2 Profiler PCR microarray kit” according to the manufacturer's protocol (SABbiosciences, Qiagen). […]
as §4
For orientation: Quantitative PCR measures a nucleic acid by following its amplification.

A further assay deals with primary human monocytes. Put plainly: mRNA of inflammatory mediators in primary human monocytes treated with TLR agonists. It is filed as cell-based. On the procedure:
as §1, §2
5. Transcription array. The Pidotimod ability to reduce the inflammation induced by potent danger signals as LPS or other PAMPs was highlighted by evaluating the level of mRNA specific for effector inflammatory molecules. To this scope total RNA was extracted using the semiautomated extraction system NucliSens Easymag (Biomerieux). […] Data obtained were analysed using the 2^−ΔΔCt method using Relative Quantification Study software (Applied Biosystems). […]

Assay [3] relates to NLRP12. Put plainly: NLRP12 protein expression in Monomac6 by immunoprecipitation and immunoblotting. It is filed as cell-based, human. As to conditions: Monomac6, 5 μg/ml, 36 hours, immunoblotting upon immunoprecipitation (FIG. 3). On the procedure:
as §1, §2, §3

The test system of assay [4] is PBMCs and/or purified monocytes. As to the kind of experiment: ELISA quantification of inflammatory molecules in cell supernatants after TLR stimulation. It is filed as cell-based, human. On the procedure:
as §1, §2
6. ELISA for the quantification of proinflammatory molecules induced by TLR stimulation. The increase of cytokine synthesis is the signal of cellular response to TLR stimulation. Pidotimod disciplines the extent of inflammation by upregulating the expression of NLRP12 which reduces the amplification of inflammatory signals triggered by TLR activation. […] The presence of IL-6, IL-8, TNF-α, MCP-1 and IL-1β was quantified in the cultural medium through ELISA assays (Endogen).

Assay [5] deals with NLRP12. Put plainly: NLRP12 mRNA expression in primary monocytes from peripheral blood of healthy donors. In kind it is cell-based, human. As to conditions: primary monocytes from 8 different subjects, 25 and 5 μg/ml (FIG. 2). How it is done: as §1, §2, §5, §4

Square brackets hold non-standard residues; d marks the D form. Peptide text beside a SMILES is read from it. pGlu = O=C1CC[C@@H](C(=O)O)N1; Thz = O=C(O)[C@@H]1CSCN1

For the molecule `O=C1CC[C@@H](C(=O)N2CSC[C@H]2C(=O)O)N1` [Pidotimod, (4R)-3-(5-oxo-L-prolyl)-1,3-thiazolidine-4-carboxylic acid] ([pGlu]-[Thz]-OH), the “NLRP12 expression at messenger level after TLR stimulation” value in the assay on NLRP12 [1] (representative TLR with optimal agonist (FIG. 5 left panel)) is given as “able to counteract the decrement of NLRP12 expression”. The “NLRP12 expression at protein level after TLR stimulation” value in the assay on NLRP12 [1] (representative TLR with optimal agonist (FIG. 5 right panel)) was “able to counteract the decrement of NLRP12 expression”. For the same molecule, in the assay with NLRP12 [2] (25 μg/ml, 16 hours of treatment, gene array confirmed by Real-Time PCR), the “NLRP12 mRNA increase as compared to unstimulated cells” value was “two-fold”. Also, the “time of peak of increase in NLRP12 expression” value in the assay on NLRP12 [2] (25 and 5 μg/ml, tested 6, 16, 24, 48 hours (FIG. 1)) was determined as 24 h. Also, the “IL-6, IL-8, TNF-α and IL-1β mRNA induced by TLR agonists” value in the assay with primary human monocytes was “controls the production of these mediators at the transcriptional level”. Further, the “levels of specific MCP-1 (mRNA) induced by TLR agonists” value in the assay on primary human monocytes (8 samples from 8 donors (FIG. 4)) was “consistently diminished”. Also, the “NLRP12 protein expression level vs untreated cells” value in the assay on NLRP12 [3] is “higher amount of NLRP12 protein”. For the same molecule, in assay [4] (purified monocytes, TLR stimulation), the “inflammatory molecules in cell supernatants by ELISA” value was “confirmed”. Moreover, in assay [4] (total PBMC instead of purified monocytes), the “inflammatory molecules by ELISA in total PBMC” value was “reproducible”. The “NLRP12 mRNA expression vs non-treated cells” value in the assay with NLRP12 [5] was “increase of NLRP12 mRNA expression”.
